Measured values taken from patent US20050288379A1, “Benzoquinone compounds as anti-cancer agents” (priority 2004, published 2005).

Test system: Human cancer cell lines Eca-109, AGS, BGC-823, DU145, SPC-A-1, Caco-2, LS-174T, A375, Raji, MCF-7, Bcap-37, HepG2
Experiment: In vitro MTT assay of inhibition of cancer cell growth
Format: cell-based
Details: 12 human cancer cell lines, 48 hrs incubation, IqA 0.3-100 μg/ml, IqB 0.03-10 μg/ml, absorbance 492 nm, IC50 values calculated but not given
Procedure: An in vitro assay was conducted to evaluate the efficacy of IqA and IqB in inhibiting the growth of cancer cells.
Human cancer cell lines, i.e., Eca-109 (esophagus carcinoma cell line), AGS and BGC-823 (gastric adenocarcinoma cell lines), DU145 (prostate carcinoma cell line), SPC-A-1 (lung adenocarcinoma cell line), Caco-2 and LS-174T (colonic carcinoma cell lines), A375 (malignant melanoma cell line), Raji (Burkitt's lymphoma cell line), MCF-7 and Bcap-37 (breast carcinoma cell lines), HepG2 (hepatoma cell line), were purchased from the Cell Bank of Shanghai Institute of Cell Biology, Chinese Academy of Sciences, and cultured in Iscove's Modified Dulbecco's Medium (IMDM) containing 10% fetal bovine serum (FBS) in an incubator at 37° C. under 5% CO2. Cells of 70-80% confluence were trypsinized, resuspended in IMDM medium containing 10% FBS at 1×10^5 cells/ml, and seeded in 96-well plates (100 μl in each well). The plates were incubated at 37° C. under 5% CO2 overnight.
IqA and IqB were provided by Shandong Xinhua Pharmaceutical CO. Ltd. IqA and IqB stock solutions were prepared at the concentrations of 10 mg/ml and 1 mg/ml in dimethyl sulfoxide (DMSO), respectively. The IqA solution was diluted with the growth medium into a series of solutions at different concentrations. […]
150 μl of DMSO was added to each well. […] Absorbance was measured at 492 nm using a microplate reader. […]

SMILES | inhibition of the proliferation of cancer cells
CCCCCCCCCCCCCCCCCC1=CC(=O)C=C(OC)C1=O [IqB, irisquinone B] | effectively inhibited the proliferation
CCCCCC/C=C\CCCCCCCCCC1=CC(=O)C=C(OC)C1=O [IqA, irisqinone A] | effectively inhibited the proliferation
